Residues, ends and D or L forms follow the SMILES beside them.
What was measured:
[1] = tested on: Caspase 3/7 in MDA-MB-231 cells; assay: Caspase 3/7 Activity in MDA-MB-231 Cells (Caspase-Glo 3/7); format: cell-based, human; conditions: for Caspase 3/7 activity, Percent of Control Activity: peptides 10 μM, 18 hours, relative to DMSO control
Method: The effect of the peptides on cell death/survival can be assessed using a caspase-3 assay. Peptides were dissolved with DMSO at 10 mM stock. […] Staurosporine (Selleckchem) was dissolved with DMSO at 1 mM stock. Caspase-Glo 3/7 Assay Reagent was purchased from Promega (Madison, Wis.). MDA-MB-231 human breast cancer cell line was purchased from American Type Culture Collection (Manassas, Va.). MDA-MB-231 cells were grown in DMEM Medium supplemented with 10% FBS. 100 μg/ml penicillin and 100 μg/ml streptomycin were added to the culture medium. Cultures were maintained at 37° C. in a humidified atmosphere of 5% CO2 and 95% air. MDA-MB-231 cells were incubated with test peptides in duplicate at 10 μM at 37° C. in a humidified atmosphere of 5% CO2 and 95% air for 18 hours. 25 μl of Caspase-Glo 3/7 Assay Reagent was added to each well and incubated at 37° C., 5% CO2 for 1 hour. Luminescence for each sample well on the plate was measured by Envision 2104 Multilabel Reader (PerkinElmer, Santa Clara, Calif.). Activity was calculated relative to DMSO control.

[2] = tested on: MDA-MB-231 cells; assay: Cell viability, MTS Assay in MDA-MB-231 Cells; format: cell-based; conditions: human, 72 hours
Method: Test compounds and reference compound staurosporine (Selleckchem) were all dissolved with DMSO at 10 mM stock. […] Activity was calculated relative to DMSO control. […] Cell viability was 3% of the DMSO control value for Staurosporine (10 uM).

[3] = Stability in Mouse Plasma; format: in vitro ADME; conditions: pooled mouse plasma, 37° C., peptides 100 DM
Method: Peptides (100 DM) were incubated in pooled mouse plasma at 37° C. and samples were removed and immediately analyzed for the concentration of intact peptide by LC/MS/MS over the course of 3 hours. The percent of peptide remaining in plasma at each time point was calculated relative to the initial peak area (Table 9).

[4] = tested on: MCF-7 cells; conditions: human, 72 hours, 10 μM
Method: Peptides and reference compound staurosporine (Selleckchem) were dissolved with DMSO at 10 mM stock. CellTiter 96® AQueous One Solution Reagent (MTS assay reagent) was purchased from Promega (Madison, Wis.). MCF-7 human breast cancer cell line was purchased from American Type Culture Collection (Manassas, Va.). MCF-7 cells were grown in EMEM Medium supplemented with 10% FBS and 0.01 mg/ml human recombinant insulin. 100 μg/ml penicillin and 100 μg/ml streptomycin were added to the culture medium. Cells were incubated with test peptides at 10 μM at 37° C. in a humidified atmosphere of 5% CO2 and 95% air for 72 hours. 5 μl of CellTiter 96® AQueous One Solution Reagent (MTS assay reagent) was added to each well and incubated at 37° C., 5% CO2 for 5 hours. Absorbance at 492 nm was recorded by Envision 2104 Multilabel Reader. Treatment with DMSO alone was used as the cell viability activity control.

[5] = tested on: 3T3-L1 adipocytes; assay: Free Fatty Acid Levels in 3T3-L1 Adipocytes (Example 4, 25 μM); format: cell-based, mouse; conditions: peptides 25 μM, 20-22 hours then 3 hours with isoproterenol 1 nM, 3T3-L1 adipocytes
Method: Following 12-15 days' differentiation, test peptides were added to a final concentration of 25 μM and incubated for 20-22 hours in Adipocyte Maintenance Medium. After 20-22 hours, isoproterenol (1 nM) was added to all wells except untreated controls and test peptides were replenished. Cells were incubated for a further 3 hours in Assay Buffer (Zen-Bio). Free fatty acid concentrations in the media were determined using a Free Fatty Acid Assay Kit (Zen-Bio) according to the manufacturer's instructions using a plate reader (540 nm). Absorbance values were corrected for untreated background and expressed relative to isoproterenol treated cells. Treatment with isoproterenol (1 nM) alone was used as the free fatty acid level stimulatory control. The relative standard deviation of the isoproterenol control was <10%. […] Free fatty acid levels for insulin (100 nM) treatment were <5% of the isoproterenol control value.

Compound | Caspase activity, % of background-corrected DMSO control value ([1]; staurosporine 0.05 nM) [%] | MTS cell viability, Percent of Control Activity [2] [%] | % Remaining at 0 min ([3]; 0 min) [%] | remaining at 0.25 h, 100 DM ([3]; 15 min) [%] | remaining at 0.5 h, 100 DM ([3]; 30 min) [%] | remaining at 1 h, 100 DM ([3]; 60 min) [%] | remaining at 2 h, 100 DM ([3]; 120 min) [%] | remaining at 3 h, 100 DM ([3]; 180 min) [%] | MTS cell viability, Percent of Control Activity [4] [%] | Free fatty acid levels, Percent of Control Value (percent isoproterenol control) [5] [%] | Caspase 3/7 activity, Percent of Control Activity [1] [%]
CN[C@@H]1C[C@H]2O[C@@](C)([C@@H]1OC)n1c3ccccc3c3c4c(c5c6ccccc6n2c5c31)C(=O)NC4 [staurosporine, reference compound] | 130 | – | – | – | – | – | – | – | – | – | –
CC[C@H](C)[C@H](NC(=O)[C@H](C)NC(=O)[C@H](CO)NC(=O)CNC(=O)[C@@H]1CCCN1C(=O)[C@H](CC(C)C)NC(=O)[C@H](CCCNC(=N)N)NC(=O)[C@@H](N)CCSC)C(=O)N[C@@H](CC(C)C)C(=O)N[C@H](C(=O)N[C@@H](CC(N)=O)C(=O)N1CCC[C@H]1C(=O)N[C@H](C(=O)N[C@@H](CC(C)C)C(=O)NCC(=O)N[C@@H](Cc1c[nH]c2ccccc12)C(=O)N[C@H](C(=O)N[C@@H](Cc1c[nH]c2ccccc12)C(=O)N[C@H](C(=O)O)C(C)C)C(C)C)C(C)C)[C@@H](C)O [compound 7] (H-MRLPGSAILTNPVLGWVWV-OH) | – | 88 | 100 | 70.9 | 68.2 | 52.6 | 31.6 | 18.1 | 64 | – | –
CC[C@H](C)[C@H](NC(=O)[C@H](C)NC(=O)[C@H](Cc1c[nH]c2ccccc12)NC(=O)[C@@H](N)CCSC)C(=O)N[C@@H](CC(=O)O)C(=O)N[C@@H](CCC(=O)O)C(=O)N[C@@H](CCCCN)C(=O)N[C@@H](C)C(=O)N[C@H](C(=O)N[C@@H](CCC(=O)O)C(=O)N[C@@H](C)C(=O)N[C@@H](CO)C(=O)NCC(=O)N[C@@H](CCC(=O)O)C(=O)O)C(C)C [compound 30] (H-MWAIDEKAVEASGE-OH; N-terminus and C-terminus assumed) | – | 76 | – | – | – | – | – | – | 61 | 85 | 50
CC[C@H](C)[C@H](NC(=O)[C@H](C)NC(=O)[C@H](CCCNC(=N)N)NC(=O)[C@H](C)NC(=O)[C@@H](NC(=O)[C@H](CCCNC(=N)N)NC(=O)[C@H](CCCNC(=N)N)NC(=O)[C@@H](NC(=O)[C@H](C)NC(=O)[C@H](CC(C)C)NC(=O)[C@@H](N)CCSC)C(C)C)[C@@H](C)O)C(=O)NCC(=O)O [compound 2] (H-MLAVRRTARAIG-OH; N-terminus and C-terminus assumed) | – | 78 | – | – | – | – | – | – | 39 | 76 | 71
CC[C@H](C)[C@H](NC(=O)CNC(=O)[C@H](CCC(=O)O)NC(=O)[C@H](CCCNC(=N)N)NC(=O)CNC(=O)[C@H](Cc1c[nH]c2ccccc12)NC(=O)[C@@H]1CCCN1C(=O)[C@H](Cc1c[nH]cn1)NC(=O)CNC(=O)CNC(=O)[C@H](CCC(=O)O)NC(=O)[C@H](CO)NC(=O)[C@H](CC(C)C)NC(=O)[C@@H]1CCCN1C(=O)CNC(=O)[C@H](CCCCN)NC(=O)[C@@H](NC(=O)[C@@H](NC(=O)[C@@H](N)CCSC)C(C)C)C(C)C)C(=O)O [compound 25] (H-MVVKGPLSEGGHPWGREGI-OH; N-terminus and C-terminus assumed) | – | 76 | – | – | – | – | – | – | 40 | 61 | 46
CSCC[C@H](N)C(=O)N[C@H](C(=O)N[C@@H](Cc1ccccc1)C(=O)N[C@@H](CCC(N)=O)C(=O)N[C@@H](CCCCN)C(=O)N[C@H](C(=O)N[C@@H](Cc1c[nH]cn1)C(=O)N[C@@H](CC(N)=O)C(=O)N[C@@H](CC(C)C)C(=O)N[C@@H](CC(N)=O)C(=O)N[C@@H](CCC(N)=O)C(=O)N[C@@H](Cc1c[nH]cn1)C(=O)N[C@@H](CC(N)=O)C(=O)N[C@@H](Cc1c[nH]cn1)C(=O)N1CCC[C@H]1C(=O)N[C@@H](CCC(N)=O)C(=O)N1CCC[C@H]1C(=O)N[C@@H](CC(N)=O)C(=O)N[C@@H](Cc1ccc(O)cc1)C(=O)O)[C@@H](C)O)[C@@H](C)O [compound 20] (H-MTFQKTHNLNQHNHPQPNY-OH; N-terminus and C-terminus assumed) | – | 85 | – | – | – | – | – | – | 63 | 71 | 58

Reference: patent publication US20220324912A1, “THERAPEUTIC PEPTIDES” (COHBAR, INC., priority 2019, published 2022)
